The record followed here is ChEMBL document CHEMBL1255216, “Exploration of the amine terminus in a novel series of 1,2,4-triazolo-3-yl-azabicyclo[3.1.0]hexanes as selective dopamine D3 receptor antagonists” (J Med Chem, 2010).

Targets include Cytochrome P450 3A4 (Homo sapiens, UniProt P08684); Cytochrome P450 2D6 (Homo sapiens, UniProt P10635); Cytochrome P450 2C19 (Homo sapiens, UniProt P33261); Cytochrome P450 2C9 (Homo sapiens, UniProt P11712).
The target in the next data set is D(3) dopamine receptor (Homo sapiens, UniProt P35462). Nature of the data set: Antagonist activity at human dopamine D3 expressed in CHO cells assessed as inhibition of quinelorane-induced [35S]GTPgammaS binding. It counts as functional, cell-based. On the technique in general: GTPγS resists hydrolysis and so accumulates on activated G proteins.
Chain of D(3) dopamine receptor (P35462 whole entry): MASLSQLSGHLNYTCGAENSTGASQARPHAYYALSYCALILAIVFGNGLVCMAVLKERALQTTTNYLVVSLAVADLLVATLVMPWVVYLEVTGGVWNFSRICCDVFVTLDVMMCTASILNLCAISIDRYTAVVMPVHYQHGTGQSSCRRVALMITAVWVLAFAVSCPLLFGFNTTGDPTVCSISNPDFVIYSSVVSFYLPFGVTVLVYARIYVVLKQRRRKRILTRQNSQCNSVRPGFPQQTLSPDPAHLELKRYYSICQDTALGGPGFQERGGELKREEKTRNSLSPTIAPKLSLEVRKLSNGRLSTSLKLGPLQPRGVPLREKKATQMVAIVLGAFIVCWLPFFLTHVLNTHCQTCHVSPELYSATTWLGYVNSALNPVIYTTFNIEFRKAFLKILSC
A further data set concerns the target D(2) dopamine receptor (Homo sapiens, UniProt P14416). As to the kind of experiment: Antagonist activity at human dopamine D2L receptor expressed in CHO cells assessed as inhibition of quinelorane-induced [35S]GTPgammaS binding. It is filed as functional, cell-based.
The target in data set [1] is Voltage-gated inwardly rectifying potassium channel KCNH2 (Homo sapiens, UniProt Q12809).
Chain of Voltage-gated inwardly rectifying potassium channel KCNH2 (Q12809 whole entry): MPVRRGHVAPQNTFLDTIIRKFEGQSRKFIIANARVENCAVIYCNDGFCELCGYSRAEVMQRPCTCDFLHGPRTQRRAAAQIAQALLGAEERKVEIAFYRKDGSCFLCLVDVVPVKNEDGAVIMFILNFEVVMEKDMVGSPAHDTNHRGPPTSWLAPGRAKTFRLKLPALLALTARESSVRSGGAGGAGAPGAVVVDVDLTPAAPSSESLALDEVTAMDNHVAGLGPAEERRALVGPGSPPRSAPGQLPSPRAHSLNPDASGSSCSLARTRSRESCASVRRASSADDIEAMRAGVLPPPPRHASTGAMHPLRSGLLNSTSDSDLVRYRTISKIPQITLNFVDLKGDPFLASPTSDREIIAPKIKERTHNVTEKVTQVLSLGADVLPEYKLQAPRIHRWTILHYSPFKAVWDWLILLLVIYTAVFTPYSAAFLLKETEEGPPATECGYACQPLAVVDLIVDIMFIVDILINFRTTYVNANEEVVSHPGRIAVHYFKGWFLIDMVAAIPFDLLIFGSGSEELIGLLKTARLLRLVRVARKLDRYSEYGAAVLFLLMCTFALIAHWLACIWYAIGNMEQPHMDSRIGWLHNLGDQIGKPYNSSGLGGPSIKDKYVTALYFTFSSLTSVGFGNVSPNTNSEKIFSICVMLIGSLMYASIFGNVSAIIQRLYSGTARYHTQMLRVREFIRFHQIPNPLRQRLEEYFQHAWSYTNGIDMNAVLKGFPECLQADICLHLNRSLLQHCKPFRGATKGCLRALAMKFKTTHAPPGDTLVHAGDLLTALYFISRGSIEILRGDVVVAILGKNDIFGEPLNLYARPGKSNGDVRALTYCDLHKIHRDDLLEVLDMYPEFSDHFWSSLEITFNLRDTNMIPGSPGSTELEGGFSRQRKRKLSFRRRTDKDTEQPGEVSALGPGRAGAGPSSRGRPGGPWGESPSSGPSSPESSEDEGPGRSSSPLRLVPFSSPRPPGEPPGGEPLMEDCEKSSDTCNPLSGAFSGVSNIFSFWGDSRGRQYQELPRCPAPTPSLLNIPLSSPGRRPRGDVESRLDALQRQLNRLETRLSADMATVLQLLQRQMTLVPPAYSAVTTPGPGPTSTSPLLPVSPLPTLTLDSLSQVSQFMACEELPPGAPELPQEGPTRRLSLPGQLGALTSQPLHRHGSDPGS
The subject of data set [2] is Liver microsomes. Particulars: human, 0.5 h, 0.5 µM.
Another data set has as its target T1, Cytochrome P450 1A2 (Homo sapiens, UniProt P05177).
T1 sequence (P05177 whole entry): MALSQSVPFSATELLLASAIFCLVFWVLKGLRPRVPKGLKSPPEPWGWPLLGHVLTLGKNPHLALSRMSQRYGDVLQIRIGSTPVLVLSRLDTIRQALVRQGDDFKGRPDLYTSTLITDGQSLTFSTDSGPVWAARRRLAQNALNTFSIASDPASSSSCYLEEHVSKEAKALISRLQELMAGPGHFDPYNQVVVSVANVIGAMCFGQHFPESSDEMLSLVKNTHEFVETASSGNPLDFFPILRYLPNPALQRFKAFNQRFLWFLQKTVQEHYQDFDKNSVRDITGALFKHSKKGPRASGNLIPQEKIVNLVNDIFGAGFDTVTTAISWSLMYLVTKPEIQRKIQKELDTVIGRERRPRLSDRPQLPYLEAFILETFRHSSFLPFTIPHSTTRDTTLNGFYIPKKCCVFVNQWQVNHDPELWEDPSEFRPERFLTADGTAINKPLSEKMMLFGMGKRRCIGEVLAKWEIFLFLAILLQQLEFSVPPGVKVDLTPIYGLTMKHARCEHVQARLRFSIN

The subject of data set [3] is Liver microsomes. Particulars: rat, 0.5 h, 0.5 µM.

Chain of D(2) dopamine receptor (P14416 whole entry): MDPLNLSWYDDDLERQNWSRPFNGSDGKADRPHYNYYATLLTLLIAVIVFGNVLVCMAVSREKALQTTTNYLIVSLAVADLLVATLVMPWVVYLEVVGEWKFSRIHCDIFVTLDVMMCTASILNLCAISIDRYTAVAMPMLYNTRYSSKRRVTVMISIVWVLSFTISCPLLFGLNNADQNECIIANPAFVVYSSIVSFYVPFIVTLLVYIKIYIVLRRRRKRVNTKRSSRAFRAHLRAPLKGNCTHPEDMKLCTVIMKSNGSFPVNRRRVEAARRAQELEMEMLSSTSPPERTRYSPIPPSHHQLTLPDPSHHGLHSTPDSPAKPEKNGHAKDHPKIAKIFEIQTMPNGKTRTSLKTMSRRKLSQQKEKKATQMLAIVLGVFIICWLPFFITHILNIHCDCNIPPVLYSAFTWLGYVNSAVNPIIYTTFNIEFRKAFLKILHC
Chain of Cytochrome P450 3A4 (P08684 whole entry): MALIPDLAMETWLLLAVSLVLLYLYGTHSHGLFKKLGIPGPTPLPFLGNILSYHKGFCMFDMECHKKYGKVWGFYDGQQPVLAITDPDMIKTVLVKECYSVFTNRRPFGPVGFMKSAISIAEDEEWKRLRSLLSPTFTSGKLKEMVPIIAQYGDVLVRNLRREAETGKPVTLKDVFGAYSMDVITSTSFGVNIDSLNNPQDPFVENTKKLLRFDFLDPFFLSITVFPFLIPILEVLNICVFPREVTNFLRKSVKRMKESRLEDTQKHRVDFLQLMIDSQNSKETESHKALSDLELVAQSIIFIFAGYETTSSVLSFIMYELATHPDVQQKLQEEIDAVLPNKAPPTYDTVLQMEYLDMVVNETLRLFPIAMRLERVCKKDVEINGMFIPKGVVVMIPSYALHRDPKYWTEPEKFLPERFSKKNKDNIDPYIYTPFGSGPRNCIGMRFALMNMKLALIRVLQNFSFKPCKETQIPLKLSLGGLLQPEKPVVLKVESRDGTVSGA
Chain of Cytochrome P450 2D6 (P10635 whole entry): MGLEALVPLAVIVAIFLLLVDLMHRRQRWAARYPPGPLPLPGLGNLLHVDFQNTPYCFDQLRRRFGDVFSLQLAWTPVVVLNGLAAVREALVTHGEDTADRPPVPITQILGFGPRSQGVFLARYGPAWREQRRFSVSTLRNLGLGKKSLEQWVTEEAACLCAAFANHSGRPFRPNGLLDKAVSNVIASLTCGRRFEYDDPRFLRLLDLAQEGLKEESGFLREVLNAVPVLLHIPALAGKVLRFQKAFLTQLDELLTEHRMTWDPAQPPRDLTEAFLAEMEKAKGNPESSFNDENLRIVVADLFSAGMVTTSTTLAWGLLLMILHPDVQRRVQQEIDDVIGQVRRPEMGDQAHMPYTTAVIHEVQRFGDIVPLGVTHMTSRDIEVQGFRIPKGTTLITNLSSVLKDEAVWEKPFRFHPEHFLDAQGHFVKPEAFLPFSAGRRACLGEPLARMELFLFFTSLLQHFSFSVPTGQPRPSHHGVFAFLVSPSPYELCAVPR
Chain of Cytochrome P450 2C19 (P33261 whole entry): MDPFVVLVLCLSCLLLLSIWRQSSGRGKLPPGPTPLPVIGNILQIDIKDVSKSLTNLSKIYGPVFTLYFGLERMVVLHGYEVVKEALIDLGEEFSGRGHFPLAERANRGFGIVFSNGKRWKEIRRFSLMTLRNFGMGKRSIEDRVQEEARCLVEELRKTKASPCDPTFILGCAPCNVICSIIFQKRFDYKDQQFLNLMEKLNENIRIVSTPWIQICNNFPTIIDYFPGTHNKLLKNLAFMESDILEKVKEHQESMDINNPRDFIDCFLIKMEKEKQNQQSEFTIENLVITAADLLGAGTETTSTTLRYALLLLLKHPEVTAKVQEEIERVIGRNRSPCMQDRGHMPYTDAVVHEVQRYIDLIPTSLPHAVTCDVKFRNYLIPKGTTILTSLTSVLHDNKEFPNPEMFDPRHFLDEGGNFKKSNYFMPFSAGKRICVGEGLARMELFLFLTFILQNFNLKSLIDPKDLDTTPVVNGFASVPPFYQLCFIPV
Chain of Cytochrome P450 2C9 (P11712 whole entry): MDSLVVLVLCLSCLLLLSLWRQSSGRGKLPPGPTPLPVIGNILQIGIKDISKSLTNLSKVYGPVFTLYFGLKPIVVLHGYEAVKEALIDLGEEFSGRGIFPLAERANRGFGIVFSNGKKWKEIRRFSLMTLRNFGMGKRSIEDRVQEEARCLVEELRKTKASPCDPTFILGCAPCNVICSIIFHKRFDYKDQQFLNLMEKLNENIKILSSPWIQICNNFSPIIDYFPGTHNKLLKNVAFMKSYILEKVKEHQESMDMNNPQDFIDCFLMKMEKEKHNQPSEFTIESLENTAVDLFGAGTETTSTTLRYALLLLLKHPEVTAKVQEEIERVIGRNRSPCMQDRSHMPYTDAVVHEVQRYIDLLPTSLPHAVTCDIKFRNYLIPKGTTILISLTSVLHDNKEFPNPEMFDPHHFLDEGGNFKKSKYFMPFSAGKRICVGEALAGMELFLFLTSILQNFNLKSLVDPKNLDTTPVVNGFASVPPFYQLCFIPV
Description for Cytochrome P450 1A2: Inhibition of human CYP1A2
Description for Cytochrome P450 2C19: Inhibition of human CYP2C19
Description for Cytochrome P450 2C9: Inhibition of human CYP2C9
Description for Cytochrome P450 2D6: Inhibition of human CYP2D6
Description for Cytochrome P450 3A4: Inhibition of human CYP3A4

As usually defined, the Ki is the equilibrium dissociation constant of an inhibitor or competing ligand from its target. As a reminder, the IC50 is the midpoint of a concentration-inhibition curve. In the case of `Cc1ncoc1-c1nnc(SCCCN[C@@H]2CC[C@]3(c4ccc(C(F)(F)F)cc4)CC23)n1C` (stereo in doubt; 22), the figures for the Ki on D(3) dopamine receptor and on D(2) dopamine receptor were 126 nM and over 3160 nM, respectively. Further, inhibition in data set [1] was half-maximal at 251 nM (IC50).
Regarding `Cc1ncoc1-c1nnc(SCCCNC2CC3CC3(c3ccccc3)C2)n1C` (centres undefined), the figures for the Ki at D(3) dopamine receptor and at D(2) dopamine receptor were 50.1 nM and 251 nM, respectively.
In the case of `Cc1ncoc1-c1nnc(SCCCN2CCC3(CCc4cc(Br)ccc43)C2)n1C` (centres undefined), the Ki at D(3) dopamine receptor is 5.01 nM; on D(2) dopamine receptor, 126 nM.
As to `CCOc1ccc2c(c1)Oc1cc(OCC)ccc1C21OC(=O)c2ccccc21` [DIETHOXYFLOURESCEIN], inhibition at Cytochrome P450 3A4 was half-maximal at 1000 nM (IC50).
As to `COc1ccc2c(c1)CCCC21CCN(CCCSc2nnc(-c3ocnc3C)n2C)C1` (centres undefined), the Ki on D(3) dopamine receptor was 100 nM; at D(2) dopamine receptor, 1000 nM.
As to `Cc1ncoc1-c1nnc(SCCCN2CCC3(c4ccccc4)CC3C2)n1C` (centres undefined), the Ki at D(3) dopamine receptor is 158 nM.
As to `Cc1ncoc1-c1nnc(SCCCN2CCC3CC3(c3ccccc3)C2)n1C` (centres undefined), the Ki was 126 nM at D(3) dopamine receptor and 398 nM on D(2) dopamine receptor.
Take `Cc1ncoc1-c1nnc(SCCCN2CCC3CC3(c3cccc(C(F)(F)F)c3)C2)n1C` (centres undefined): the inhibitory constant (Ki) on D(3) dopamine receptor is 12.6 nM.
In the case of `Cc1ncoc1-c1nnc(SCCCN[C@@H]2CC3C[C@]3(c3ccc(C(F)(F)F)cc3F)C2)n1C` (some centres undefined), the inhibition constant Ki on D(3) dopamine receptor is 31.6 nM; at D(2) dopamine receptor, over 3160 nM.
As to `Cc1nc(C)c(-c2nnc(SCCCN3CCC4(CCc5cc(Cl)ccc54)C3)n2C)s1` (centres undefined), the inhibition constant Ki on D(3) dopamine receptor is 31.6 nM; at D(2) dopamine receptor, 398 nM. Also, the IC50 in data set [1] is 2510 nM.
For the molecule `Cc1ncoc1-c1nnc(SCCCN2[C@@H]3CC[C@H]2C[C@@H](c2ccc(C(C)(C)C)cc2)C3)n1C`, the figures for the CL with Liver microsomes [2] and in the data set on Liver microsomes [3] were 0.9 mL/min/g and 7.9 mL/min/g, respectively. Moreover, the results for the inhibition constant (Ki) at D(3) dopamine receptor and on D(2) dopamine receptor were 0.631 nM and 398 nM, respectively. The concentration for half-maximal inhibition (IC50) against Cytochrome P450 1A2, against Cytochrome P450 2D6, at Cytochrome P450 3A4, at Cytochrome P450 2C19 and on Cytochrome P450 2C9 was over 5000 nM in each case.
In the case of `Cc1nc(C)c(-c2nnc(SCCCN3CCC4CC4(c4ccc(C(F)(F)F)cc4)CC3)n2C)s1` (centres undefined), the Ki was 3.98 nM at D(3) dopamine receptor and 200 nM at D(2) dopamine receptor. The IC50 in [1] was 631 nM.
`Cc1ncoc1-c1nnc(SCCCN2CCC3CC3(c3ccc(C(F)(F)F)cc3)C2)n1C` (centres undefined): the Ki is 7.94 nM on D(3) dopamine receptor and 501 nM on D(2) dopamine receptor. Moreover, 2000 nM corresponded to half-maximal inhibition in data set [1] (IC50).
On the same counts, the results for `Cc1nc(C)c(-c2nnc(SCCCN3CCC4(CCc5ccc(F)cc54)C3)n2C)s1` (centres undefined) are 50.1 nM, 398 nM and 6310 nM.
Take `Cc1ncoc1-c1nnc(SCCCN[C@@H]2CC[C@]3(c4ccc(C(F)(F)F)cc4)CC23)n1C` (stereo in doubt; 24): the CL with Liver microsomes [2] and with Liver microsomes [3] was under 0.5 mL/min/g in each case. Further, the inhibition constant Ki on D(3) dopamine receptor is 3.98 nM; on D(2) dopamine receptor, 501 nM. Also, the IC50 was over 4000 nM against Cytochrome P450 1A2; over 4000 nM against Cytochrome P450 2D6; 631 nM in data set [1]; over 4000 nM on Cytochrome P450 3A4; over 4000 nM against Cytochrome P450 2C19; over 4000 nM against Cytochrome P450 2C9.
Regarding `Cc1ncoc1-c1nnc(SCCCN2CCC3(CCc4ccc(Br)cc43)C2)n1C` (centres undefined), the Ki on D(3) dopamine receptor was 2.51 nM; at D(2) dopamine receptor, 39.8 nM.
With `Cc1ncoc1-c1nnc(SCCCN2CCC3(c4ccc(C(F)(F)F)cc4)CC3C2)n1C` (centres undefined), the Ki at D(3) dopamine receptor is 39.8 nM.
As for `Cc1ncoc1-c1nnc(SCCCN2CCC3(CCCc4cc(Br)ccc43)C2)n1C` (centres undefined), the Ki on D(3) dopamine receptor was 7.94 nM.
As for `Cc1ncoc1-c1nnc(SCCCN[C@@H]2CC[C@]3(c4ccc(C(F)(F)F)cc4F)CC23)n1C` (some centres undefined), the inhibition constant Ki is 3.16 nM at D(3) dopamine receptor and 200 nM at D(2) dopamine receptor. In data set [1], this molecule had an IC50 of 631 nM.
Regarding `Cc1ncoc1-c1nnc(SCCCN2CCC3CC3(c3ccc(C(F)(F)F)cc3)CC2)n1C` (centres undefined), the Ki at D(3) dopamine receptor was 3.98 nM; at D(2) dopamine receptor, 100 nM.
As for `Cc1ncoc1-c1nnc(SCCCN2CCC3(CCCc4ccc(Br)cc43)C2)n1C` (centres undefined), the Ki on D(3) dopamine receptor was 15.8 nM; at D(2) dopamine receptor, 316 nM.
On the same counts, the results for `Cc1ncoc1-c1nnc(SCCCN2CCC3(CCOc4ccccc43)C2)n1C` (centres undefined) are 100 nM and over 3160 nM.
Take `Cc1ncoc1-c1nnc(SCCCN2[C@@H]3CC[C@H]2C[C@@H](c2ccc(C(F)(F)F)cc2F)C3)n1C`: the Ki was 6.31 nM at D(3) dopamine receptor and over 3160 nM at D(2) dopamine receptor.
In the case of `Cc1ncoc1-c1nnc(SCCCN2CCC3(c4cccc(C(F)(F)F)c4)CC3C2)n1C` (centres undefined), the Ki at D(3) dopamine receptor was 6.31 nM; at D(2) dopamine receptor it was 2510 nM.
`Cc1ncoc1-c1nnc(SCCCNC2CC[C@]3(c4ccc(C(F)(F)F)cc4)CC23)n1C` (single isomer, unassigned): the Ki at D(3) dopamine receptor was 251 nM; at D(2) dopamine receptor, over 3160 nM. The molecule also had a concentration for half-maximal inhibition (IC50) in [1] of 2510 nM.
Consider `Cc1ncoc1-c1nnc(SCCCN2CCC3(CCc4c(Br)cccc43)C2)n1C` (centres undefined), for which the inhibitory constant (Ki) at D(3) dopamine receptor is 7.94 nM; on D(2) dopamine receptor it was 251 nM.
With `Cc1nc(C)c(-c2nnc(SCCCN3CCC4CC4(c4ccc(C(F)(F)F)cc4)CC3)n2C)o1` (centres undefined), the Ki on D(3) dopamine receptor is 10 nM.
In the case of `Cc1ncoc1-c1nnc(SCCCN2CCC3(CCc4cc(F)ccc43)C2)n1C` (centres undefined), the Ki on D(3) dopamine receptor is 158 nM; on D(2) dopamine receptor it was 100 nM.
With `Cn1c(SCCCN2CCC3CC3(c3ccc(C(F)(F)F)cc3)CC2)nnc1-c1ccnnc1` (centres undefined), the Ki is 3.98 nM at D(3) dopamine receptor and 398 nM on D(2) dopamine receptor.
On to `COc1ccc2c(c1)C1(CCC2)CCN(CCCSc2nnc(-c3ocnc3C)n2C)C1` (centres undefined), for which the Ki at D(3) dopamine receptor was 31.6 nM.
Turning to `Cc1ncoc1-c1nnc(SCCCN2[C@@H]3CC[C@H]2C[C@@H](c2ccc(C(F)(F)F)cc2)C3)n1C`, the Ki at D(3) dopamine receptor is 10 nM; at D(2) dopamine receptor, 398 nM.
Turning to `COc1cccc2c1CCCC21CCN(CCCSc2nnc(-c3ocnc3C)n2C)C1` (centres undefined), the results for the Ki at D(3) dopamine receptor and on D(2) dopamine receptor were 79.4 nM and 398 nM, respectively.
